Experiment: Human HepG2 cell viability assay in 384 well format
Type: toxicity, cell-based
Set-up: dose 125 nL, time 70.5 hour; concentration not given beside the values
Details: HepG2 cells, read-out: Inhibition

| SMILES | cytotoxicity at 70.5 h [%] |
| --- | --- |
| CC(CC(=O)c1ccco1)NC(=O)c1ccon1 (stereo not drawn) | -8.03 |
| CCOc1ccc(Cl)cc1CCNC(=O)Cn1ccccc1=O | -3.35 |
| Cc1cccn2cc(CNS(=O)(=O)N3CCOCC3)nc12 | -5.24 |
| CC(NC(=O)N1CCC1)c1ccc(S(C)(=O)=O)cc1 (stereo not drawn) | -5.1 |
| COC(=O)c1ccc(NC(=O)CCc2ccco2)cc1 | -8.07 |
| Cc1nsc(N2CCN(CC(=O)N(C3CC3)C(C)C3CC3)CC2)n1 (stereo not drawn) | 13.6 |
| CCn1nc(C)cc1C(=O)OCC1CC(=O)N(Cc2ccccc2)C1 (stereo not drawn) | 0.617 |
| Cc1cnn(C2CN(CCOc3ccccc3C#N)C2)c1 | -4.34 |
| CCOc1cc(Cl)ccc1CNC(=O)c1ccc(=O)n(C)c1 | 11.4 |
| CCCS(=O)(=O)N1CCCN(CCCOC)CC1 | 8.01 |
| CC(C)Cn1ncc(C(=O)NS(=O)(=O)c2ccccc2)c1C1CC1 | -8.45 |
| O=C(CNC(=O)c1ccccc1Cl)Nc1nccs1 | 1.89 |
| NC(=O)Cn1c(SCc2noc(-c3ccsc3)n2)nnc1C1CC1 | -1.96 |
| COCCCC(=O)NCc1cccc(NC(N)=O)c1 | -3.29 |
| COc1cc(Cl)ccc1C(=O)NCC(=O)Nc1nccs1 | -5.69 |
| CCOCCCC(=O)Nc1[nH]nc(-c2ccncc2)c1C | -9.37 |
| NC(=O)N1CCCC(C(=O)Nc2cccc(Cl)c2)C1 (stereo not drawn) | -8.06 |
| COC(=O)c1oc(CNC(C)(C)CO)cc1C | -5.24 |
| Cc1noc(C)c1CS(=O)(=O)CC(=O)NCCc1cccs1 | 15.1 |
| CNS(=O)(=O)c1ccccc1N1CCN(C(=O)C(C)C)CC1 | -5.83 |
| CN(C)C(=O)COc1ccccc1CNC1CCc2ncnn2C1 (stereo not drawn) | -6.71 |
| CC(C)(C)CC(=O)NCC(=O)NS(=O)(=O)c1cccnc1 | 2.71 |
| COC(=O)N(C)CCCC(=O)Nc1[nH]nc(-c2ccncc2)c1C | -2.11 |
| O=C(CNC(=O)c1cc(Cl)ccn1)Nc1nccs1 | -4.32 |

| SMILES | cytotoxicity at 70.5 h [%] |
| --- | --- |
| COc1cccc(COCC(=O)NC(C(N)=O)c2ccccc2F)c1 (stereo not drawn) | 12 |
| NC(=O)C(NC(=O)COCCc1ccccc1)c1ccccc1F (stereo not drawn) | 5.16 |
| OCCN(Cc1cccnc1)c1ncc(Br)cn1 | -2 |
| Cc1cc(C(=O)NCC(O)CN2CCCC2=O)ccc1F (stereo not drawn) | -4.58 |
| CCn1nc2c(cc1=O)CN(CCOc1cccc(C#N)c1)CC2 | -3.93 |
| Cc1cc(C2CCCN(C(=O)COc3cc(F)ccc3F)C2)n[nH]1 (stereo not drawn) | 3.52 |
| COC(=O)c1oc(CNC(C)(C)c2ccc3c(c2)OCO3)cc1C | 19.5 |
| CN(Cc1ncnn1C)C(=O)CCn1ccc2ccccc21 | -7.59 |
| O=C1CC2(CCSC2)C(=O)N1CCCc1ccccc1 (stereo not drawn) | -5.63 |
| CCOC(=O)C(C)NC(=O)CCSc1ccc(F)cc1 (stereo not drawn) | -2.94 |
| COCCN(C)CC1CCCN1S(=O)(=O)c1cccc(F)c1F (stereo not drawn) | -4.32 |
| Cc1cc2n(n1)CC(CNC1CCN(Cc3ccncc3)CC1)CN2 (stereo not drawn) | -0.58 |
| CCc1cccc(NS(=O)(=O)c2cc(C)c(C(=O)O)s2)c1 | 0.535 |
| Cc1cc2n(n1)CC(CNC1CCN(Cc3ccccn3)CC1)CN2 (stereo not drawn) | -6.35 |
| N#Cc1cccc(CNC(=O)NC2CCN(CC(F)F)CC2)c1 | 17.7 |
| CC(C)c1noc(CCC(=O)NC(C)c2nnc3n2CCC3)n1 (stereo not drawn) | 0.884 |
| CC(C)c1noc(CCCC(=O)NC(C)c2nnc3n2CCC3)n1 (stereo not drawn) | -4.68 |
| CC(C)NC(=O)Nc1ccccc1CN1CCOCC1 | -5.87 |
| COc1ccnc(N2CCN(C(=O)c3cnc(C4CC4)s3)CC2)n1 | -5.21 |
| CCS(=O)(=O)N1CCC(NCC2CNc3cc(C)nn3C2)CC1 (stereo not drawn) | 19.2 |
| Cc1cc(S(=O)(=O)Nc2cccc(OC(F)F)c2)sc1C(=O)O | 16.4 |
| CC(C)COCC(C)NC(=O)NCc1cccc(-n2cncn2)c1 (stereo not drawn) | -2.93 |
| Cc1ccccc1C(=O)NC1CCN(c2cnn(C)c2)C1=O (stereo not drawn) | -4.47 |
| Cc1nc(CN2CCC(CNC(=O)NCCC3CCC3)CC2)oc1C | 0.076 |

| SMILES | cytotoxicity at 70.5 h [%] |
| --- | --- |
| Cc1c(CNC(=O)NCc2cccc(-n3cncn3)c2)cnn1C | -5.57 |
| CCC(CC)c1cc(CNC(=O)N2CCCC(c3ncc[nH]3)C2)on1 (stereo not drawn) | 0.2 |
| CCN1CCN(c2ccc(F)cc2C(C)NCc2nc(C)no2)CC1 (stereo not drawn) | -0.791 |
| CCC(CC)c1cc(CNC(=O)N2CCC[C@@H]2CO)on1 | 15.7 |
| CCC(CC)c1cc(CNC(=O)N2CCC(CO)CC2)on1 | -4.82 |
| CC(C)C(O)C(C)(C)CNC(=O)NCc1ccc(-n2cncn2)cc1 (stereo not drawn) | -1.82 |
| COc1c(CNC2CCOc3ccccc32)c(C)nn1C (stereo not drawn) | -4.19 |
| c1cc(CNCc2ccnc(N3CCCCC3)c2)c2c(c1)OCCCO2 | -10.6 |
| CCN(CC(=O)NC(C)C)S(=O)(=O)N1CCCC(C)C1 (stereo not drawn) | -1.39 |
| O=C1CC2(CCCC2)C(=O)N1CC(O)COCc1ccccc1F (stereo not drawn) | 12.5 |
| Cc1ccc(-c2ccsc2C(=O)NC2CCS(=O)(=O)C2)cc1 (stereo not drawn) | -3.7 |
| O=C(NC1CCS(=O)(=O)C1)c1ccc(-c2ccc(F)cc2)s1 (stereo not drawn) | -0.198 |
| COc1cc(C(=O)O)ccc1OCC(=O)NC(C)c1ccc(F)cc1 (stereo not drawn) | -5.08 |
| COc1ccc(C(=O)O)c(OCC(=O)NC(C)c2ccccc2)c1 (stereo not drawn) | -5.77 |
| COc1c(CNC2CCOc3c(F)cccc32)c(C)nn1C (stereo not drawn) | -3.45 |
| Cc1cnn(CC2CN(CCS(C)(=O)=O)CCO2)c1 (stereo not drawn) | -4.67 |
| COC(=O)N1CCC(NC(=O)Cn2cc(C)c3ccccc32)CC1 | -7.09 |
| Cc1cc(CNC(=O)[C@H]2CCCCN2C(=O)OC(C)(C)C)on1 | -1.11 |
| COc1ccc(CNC(=O)CNc2cc3c(cc2Cl)OCCO3)cc1 | -0.455 |
| CSCC(C)(O)CNC(=O)c1cc(F)ccc1Br (stereo not drawn) | 1.71 |
| COCCN1CCC(NC(=O)Cn2cc(C)c3ccccc32)CC1 | 12.3 |
| Cc1cc(CNC(=O)C2CCCN2C(=O)OC(C)(C)C)no1 (stereo not drawn) | -0.379 |
| c1ccc2c(c1)OCCCC2NCc1nnc2n1CCCCC2 (stereo not drawn) | -2.04 |
| Cc1nn(C)c(Oc2ccccc2)c1CNC1CCOc2ccccc21 (stereo not drawn) | -1.6 |

| SMILES | cytotoxicity at 70.5 h [%] |
| --- | --- |
| Cc1cc(CN(Cc2ccccc2)CC(O)c2cccs2)on1 (stereo not drawn) | 8.6 |
| OC(CN(Cc1ccccc1)Cc1ccon1)c1cccs1 (stereo not drawn) | -5.21 |
| CN(C)c1cc(CNCc2cccc3c2OCCO3)ccn1 | -4.63 |
| CCN(CC)S(=O)(=O)N1CCCN(CC(=O)NC(C)C)CC1 | 6.63 |
| c1cc(CNCc2ccnc(N3CCCC3)c2)c2c(c1)OCCCO2 | -10 |
| Cc1oncc1C(=O)NCC(c1ccccc1Cl)N1CCOCC1 (stereo not drawn) | -3.09 |
| Cc1cnc(C(=O)NCC(c2ccc(C)o2)N2CCOCC2)cn1 (stereo not drawn) | 10.4 |
| CN1CCN(Cc2ccccc2CNC(=O)c2cc(Cl)ccc2F)CC1 | -5.92 |
| Cc1ccoc1C(=O)NCC(c1ccccc1Cl)N1CCOCC1 (stereo not drawn) | -1.62 |
| CC(C)CN1CCN(C(=O)c2cccnc2-n2cncn2)CC1 | 11.2 |
| CC(NC(=O)Cc1ccccc1F)C(=O)N1CCS(=O)(=O)CC1 (stereo not drawn) | -3.35 |
| CC(C)(C)NC(=O)NC(=O)COc1nc(C(C)(C)C)no1 | 13 |
| CN(Cc1ccc(N(C)C)cc1)C(=O)CS(=O)(=O)c1ccc(Cl)cc1 | 17 |
| CC(C)(C)N1CCN(C(=O)c2cccnc2-n2cncn2)CC1 | 0.2 |
| N#Cc1cccnc1NCCNC(=O)N1CCN2CCCCC2C1 (stereo not drawn) | 13.6 |
| Cc1ccc(CC(=O)NC(C)C(=O)N2CCS(=O)(=O)CC2)s1 (stereo not drawn) | -1.34 |
| Cc1cnn(CC2CCCN2CC(=O)N(C)Cc2ccco2)c1 (stereo not drawn) | -4.69 |
| Cn1cc(CCCNS(=O)(=O)N2CCCC2c2ccco2)cn1 (stereo not drawn) | -2.37 |
| CS(=O)(=O)Cc1ccc(Cl)c(NCc2noc(C3CC3)n2)c1 | 0.67 |
| O=C(NC1(c2nccs2)CCCC1)c1cc(C2CC2)[nH]n1 | -2.38 |
| O=C(NC1(c2nccs2)CCCC1)c1[nH]nc(C2CC2)c1Cl | 3 |
| Cn1ccc(NC2CCN(C3CC3)C2=O)n1 (stereo not drawn) | 11.7 |
| COCC(C)(C#N)NC(=O)COc1ccccc1Br (stereo not drawn) | -0.405 |
| CCC(NCc1cc[nH]n1)c1nc(C(F)(F)F)cs1 (stereo not drawn) | -4.23 |

| SMILES | cytotoxicity at 70.5 h [%] |
| --- | --- |
| CCN(CC1CCCO1)S(=O)(=O)c1cc(NC(C)=O)ccc1C (stereo not drawn) | 6.44 |
| CN(CCN1CCCC1=O)S(=O)(=O)CC1CCCC1 | -4.62 |
| CCn1cc(CN(C)S(=O)(=O)N2CCCC2c2ccco2)cn1 (stereo not drawn) | -1.42 |
| CC(C)N1CCC(Nc2ccn(CCC#N)n2)C1=O (stereo not drawn) | -2.6 |
| Cc1[nH]ccc1C(=O)N(C)C1CC(=O)N(Cc2ccccc2)C1=O (stereo not drawn) | -2.82 |
| O=C(CNc1cc(F)ccc1OC(F)F)NCC(F)(F)F | 2.53 |
| CN(C(=O)CN1CCCC1c1cnn(C)c1)C(C)(C)C#N (stereo not drawn) | 1.19 |
| Cc1ccc(N2CCCC(N(C)c3ncnc4c3CCC4)C2)nn1 (stereo not drawn) | 2.74 |
| CCOc1cc(C(=O)N(C)C)ccc1NC(=O)C(C)c1ccsc1 (stereo not drawn) | 26 |
| O=c1oc(-c2ccc(F)cc2)nn1CCc1ccccn1 | 2.48 |
| CCN(CC)Cc1ccccc1NC(=O)N(C)Cc1ccccc1O | -6.5 |
| Cn1ccnc1COc1ccc(CSc2nncn2C2CC2)cc1 | -8.64 |
| CN(C)C(=O)c1ccccc1NC(=O)N(C)Cc1ccccc1O | 4.11 |
| NC(=O)Cn1ccc(NC(=O)C2(c3cccc(Cl)c3)CC2)n1 | -7.03 |
| Cc1cc(C(=O)N2CCCC(N3CCNC3=O)C2)nn1C(C)(C)C (stereo not drawn) | -0.73 |
| NC(=O)CCN1C(=O)CC(Cc2ccc(F)cc2)C1=O (stereo not drawn) | -11.2 |
| N#CC(NC(=O)CS(=O)(=O)C1CCCC1)c1ccc(F)cc1F (stereo not drawn) | -10.4 |
| O=C(CNc1ccc(F)cc1OCC(F)(F)F)NCC(F)(F)F | 13.1 |
| CC(CNC(=O)c1c[nH]nn1)Oc1cccc(Br)c1 (stereo not drawn) | -11.4 |
| CC(CNC(=O)c1ccon1)Oc1cccc(Br)c1 (stereo not drawn) | 4.03 |
| C=C(C)CN1C(=O)CC(Cc2ccc(F)cc2)C1=O (stereo not drawn) | -3.87 |
| COc1c(CNC2CCCOc3ccc(F)cc32)c(C)nn1C (stereo not drawn) | -2.26 |
